Assay results as given in patent US9452986B2, “6-heteroaryloxy- or 6-aryloxy-quinoline-2-carboxamides and method of use” (AbbVie Inc., priority 2014, dated 2016).

System: osteoarthritic rats
Test: Osteoarthritic (OA) pain induced by sodium monoiodoacetate (MIA), hind limb grip force
Assay type: in vivo, rat
Conditions: Rattus norvegicus, 480 h, OA dose 10 mg/kg; rat, 20 days following MIA injection, hind limb grip force; read-out: OA MPE
Procedure: Osteoarthritic (OA) Pain Induced by Sodium Monoiodoacetate (MIA)
Pain behavior was assessed by measurement of hind limb grip force (GF) in adult osteoarthritic rats. Male Sprague Dawley rats, obtained from Charles River Laboratories, (Wilmington, Mass.), weighing 150-175 g, were injected in the unilateral knee join with a single intra-articular injection of sodium monoiodoacetate (MIA, 3 mg/rat). All rats were tested at 20 days following MIA injection. A behavioral measure of activity-induced pain was carried out. Measurements of the peak hind limb grip force were conducted by recording the maximum compressive force (CFmax), in grams of force, exerted on a hind limb strain gauge setup, in a commercially available grip force measurement system (Columbus Instruments, Columbus, Ohio).
During testing, each rat was gently restrained by grasping it around its rib cage and then allowed to grasp the wire mesh frame attached to the strain gauge. The experimenter then moved the animal in a rostral-to-caudal direction until the grip was broken. Each rat was sequentially tested twice at an approximately 2-3 minute interval to obtain a raw mean grip force (CFmax). This raw mean grip force data was in turn converted to a maximum hindlimb cumulative compressive force (CFmax), as the grams of force/kg of body weight, for each animal.
For evaluating the compound effects, the hind limb grip force was conducted 20 days following the intra-articular injection of MIA. A group of age-matched naïve (not injected with MIA) animals was added as a comparator to the drug-dosed groups. The vehicle control response for each group of MIA-treated animals was defined as the 0% response (0% effect), whereas the naïve control group was defined as the normal response and as 100% effect. The % effect for each dose group was expressed as % return of response to normalcy, compared to the naïve group. A percent maximal possible effect (% MPE) of testing compound was calculated according to the formula: (Treatment CFmax−Vehicle CFmax)/Vehicle CFmax]×100). Higher % effect numbers indicate increased relief from the pain in the model, with 100% indicating a return to the level of response seen in normal (non-osteoarthritic) animals. All experiments evaluating drug effects in this model were conducted in a randomized blinded fashion.
The animals were housed in Association for Assessment and Accreditation of Laboratory Animal Care (AAALAC) approved facilities at AbbVie Inc. in a temperature-regulated environment under a controlled 12-hour light-dark cycle, with lights on at 6:00 a.m. Food and water were available ad libitum at all times except during testing. All testing was done following procedures outlined in protocols approved by AbbVie Inc.'s Institutional Animal Care and Use Committee.

| Molecule | inhibition in vivo at 10 mg/kg [%] |
| --- | --- |
| O=C(c1ccc2cc(Oc3ccc(C(F)(F)F)cn3)ccc2n1)N1C[C@@H](O)[C@@H](O)C1 [Example 9, [cis-3,4-dihydroxypyrrolidin-1-yl](6-{[5-(trifluoromethyl)pyridin-2-yl]oxy}quinolin-2-yl)methanone] | 68 |
| CS(=O)(=O)C1CN(C(=O)c2ccc3cc(Oc4ccc(C(F)(F)F)cn4)ccc3n2)C1 [Example 29, [3-(methylsulfonyl)azetidin-1-yl](6-{[5-(trifluoromethyl)pyridin-2-yl]oxy}quinolin-2-yl)methanone] | 20 |

Same assay, conditions: Rattus norvegicus, 480 h, OA dose 30 mg/kg; rat, 20 days following MIA injection, hind limb grip force; read-out: OA MPE

| Molecule | inhibition in vivo at 30 mg/kg [%] |
| --- | --- |
| O=C(c1ccc2cc(Oc3ccc(C(F)(F)F)cn3)ccc2n1)N1C[C@@H]2C[C@H]1CN2 [Example 3, (1S,4S)-2,5-diazabicyclo[2.2.1]hept-2-yl(6-{[5-(trifluoromethyl)pyridin-2-yl]oxy}quinolin-2-yl)methanone] | 46 |
| O=C(N[C@@H]1CCS(=O)(=O)C1)c1ccc2cc(Oc3ccc(C(F)(F)F)cn3)ccc2n1 [Example 5, N-[(3R)-1,1-dioxidotetrahydrothiophen-3-yl]-6-{[5-(trifluoromethyl)pyridin-2-yl]oxy}quinoline-2-carboxamide] | 27 |
| CC(=O)c1ccc(Oc2ccc3nc(C(=O)N4CCNCC4)ccc3c2)cc1 [Example 7, 1-(4-{[2-(piperazin-1-ylcarbonyl)quinolin-6-yl]oxy}phenyl)ethanone] | 51 |
| NC1CN(C(=O)c2ccc3cc(Oc4ccc(C(F)(F)F)cn4)ccc3n2)C1 [Example 8, (3-aminoazetidin-1-yl)(6-{[5-(trifluoromethyl)pyridin-2-yl]oxy}quinolin-2-yl)methanone] | 91 |
| O=C(c1ccc2cc(Oc3ccc(OC(F)(F)F)cn3)ccc2n1)N1CCNCC1 [Example 431, piperazin-1-yl(6-{[5-(trifluoromethoxy)pyridin-2-yl]oxy}quinolin-2-yl)methanone] | 73 |

Biological target: recombinant human Nav1.7 (Homo sapiens (Human), UniProt Q15858)
Sequence (Q15858 whole entry): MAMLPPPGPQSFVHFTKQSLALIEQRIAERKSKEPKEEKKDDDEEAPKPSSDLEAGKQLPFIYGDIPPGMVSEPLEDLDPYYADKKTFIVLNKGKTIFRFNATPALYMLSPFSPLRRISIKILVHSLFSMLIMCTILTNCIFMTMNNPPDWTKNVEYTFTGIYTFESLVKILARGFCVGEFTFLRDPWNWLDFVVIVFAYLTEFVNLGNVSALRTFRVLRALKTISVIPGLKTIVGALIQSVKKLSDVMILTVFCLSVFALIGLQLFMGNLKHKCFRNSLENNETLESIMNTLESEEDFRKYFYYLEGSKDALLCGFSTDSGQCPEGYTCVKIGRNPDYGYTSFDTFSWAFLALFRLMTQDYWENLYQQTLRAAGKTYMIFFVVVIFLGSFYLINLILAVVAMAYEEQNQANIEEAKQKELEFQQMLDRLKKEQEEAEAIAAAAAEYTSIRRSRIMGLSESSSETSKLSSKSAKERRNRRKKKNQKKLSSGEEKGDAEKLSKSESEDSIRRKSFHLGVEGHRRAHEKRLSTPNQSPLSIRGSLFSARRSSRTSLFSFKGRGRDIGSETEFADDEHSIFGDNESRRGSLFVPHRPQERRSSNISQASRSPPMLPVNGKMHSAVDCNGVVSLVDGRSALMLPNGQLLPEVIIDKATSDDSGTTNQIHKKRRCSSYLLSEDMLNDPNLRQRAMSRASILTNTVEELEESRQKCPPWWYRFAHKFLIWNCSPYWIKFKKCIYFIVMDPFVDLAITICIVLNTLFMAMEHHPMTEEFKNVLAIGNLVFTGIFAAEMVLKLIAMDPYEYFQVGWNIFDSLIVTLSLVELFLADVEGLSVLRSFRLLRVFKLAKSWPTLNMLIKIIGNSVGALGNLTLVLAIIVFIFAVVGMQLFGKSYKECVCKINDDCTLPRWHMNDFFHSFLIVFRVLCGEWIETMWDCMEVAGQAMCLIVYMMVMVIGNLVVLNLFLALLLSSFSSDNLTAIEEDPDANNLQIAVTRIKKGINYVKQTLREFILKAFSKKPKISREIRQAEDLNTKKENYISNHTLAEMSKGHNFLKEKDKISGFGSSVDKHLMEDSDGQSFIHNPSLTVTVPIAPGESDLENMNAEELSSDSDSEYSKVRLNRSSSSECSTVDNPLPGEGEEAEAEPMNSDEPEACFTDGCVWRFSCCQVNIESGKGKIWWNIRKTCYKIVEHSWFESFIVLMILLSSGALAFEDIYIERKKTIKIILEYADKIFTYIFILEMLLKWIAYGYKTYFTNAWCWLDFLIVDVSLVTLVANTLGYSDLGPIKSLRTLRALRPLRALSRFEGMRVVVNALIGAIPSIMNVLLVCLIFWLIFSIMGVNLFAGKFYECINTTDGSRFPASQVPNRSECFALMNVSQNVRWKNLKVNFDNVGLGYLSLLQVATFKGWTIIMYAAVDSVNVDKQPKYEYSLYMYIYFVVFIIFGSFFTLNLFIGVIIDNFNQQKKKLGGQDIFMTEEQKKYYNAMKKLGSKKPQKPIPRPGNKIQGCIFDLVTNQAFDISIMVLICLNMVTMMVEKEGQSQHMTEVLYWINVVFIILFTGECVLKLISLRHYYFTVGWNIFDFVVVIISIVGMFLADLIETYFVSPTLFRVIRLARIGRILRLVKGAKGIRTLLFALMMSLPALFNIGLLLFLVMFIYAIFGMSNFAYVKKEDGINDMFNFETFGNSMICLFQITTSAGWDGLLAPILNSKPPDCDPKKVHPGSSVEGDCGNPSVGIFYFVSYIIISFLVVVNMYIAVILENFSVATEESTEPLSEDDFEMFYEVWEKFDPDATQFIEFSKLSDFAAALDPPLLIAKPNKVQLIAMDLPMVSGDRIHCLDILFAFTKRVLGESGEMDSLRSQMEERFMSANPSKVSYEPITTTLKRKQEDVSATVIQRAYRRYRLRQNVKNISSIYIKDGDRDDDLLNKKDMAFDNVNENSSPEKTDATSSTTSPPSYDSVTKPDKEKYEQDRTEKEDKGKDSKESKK
Test: FRET-based membrane potential assay, recombinant human sodium channel Nav1.7
Assay type: cell-based
Conditions: HEK293 cells stably expressing recombinant human Nav1.7; veratridine + scorpion venom depolarization; read-out: FRET-Membrane Potential Nav1.7 IC50
Procedure, shortened: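 Channel activation used veratridine at its EC80, set by a dilution curve each experiment, together with Leiurus scorpion venom, added 3 min after compound. Membrane-potential ratio signals from FLIPR Tetra in HEPES-buffered HBSS were fitted to a four-parameter Hill equation for percent inhibition and IC50.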

| Molecule | IC50 [nM] |
| --- | --- |
| O=C(c1ccc2cc(Oc3ccc(C(F)(F)F)cn3)ccc2n1)N1C[C@@H]2C[C@H]1CN2 [Example 3, (1S,4S)-2,5-diazabicyclo[2.2.1]hept-2-yl(6-{[5-(trifluoromethyl)pyridin-2-yl]oxy}quinolin-2-yl)methanone] | 1450 |
| O=C(N[C@@H]1CCS(=O)(=O)C1)c1ccc2cc(Oc3ccc(C(F)(F)F)cn3)ccc2n1 [Example 5, N-[(3R)-1,1-dioxidotetrahydrothiophen-3-yl]-6-{[5-(trifluoromethyl)pyridin-2-yl]oxy}quinoline-2-carboxamide] | 262 |
| NC1CN(C(=O)c2ccc3cc(Oc4ccc(C(F)(F)F)cn4)ccc3n2)C1 [Example 8, (3-aminoazetidin-1-yl)(6-{[5-(trifluoromethyl)pyridin-2-yl]oxy}quinolin-2-yl)methanone] | 232 |
| O=C(c1ccc2cc(Oc3ccc(C(F)(F)F)cn3)ccc2n1)N1C[C@@H](O)[C@@H](O)C1 [Example 9, [cis-3,4-dihydroxypyrrolidin-1-yl](6-{[5-(trifluoromethyl)pyridin-2-yl]oxy}quinolin-2-yl)methanone] | 2080 |
| N#CCCCNC(=O)c1ccc2cc(Oc3ccc(C(F)(F)F)cn3)ccc2n1 [Example 595, N-(3-cyanopropyl)-6-{[5-(trifluoromethyl)pyridin-2-yl]oxy}quinoline-2-carboxamide] | 1130 |
| O=C(NC1CCC1)c1ccc2cc(Oc3ccc(C(F)(F)F)cn3)ccc2n1 [Example 596, N-cyclobutyl-6-{[5-(trifluoromethyl)pyridin-2-yl]oxy}quinoline-2-carboxamide] | 1760 |
| O=C(c1ccc2cc(Oc3ccc(C(F)(F)F)cn3)ccc2n1)N1CCNCC1C(F)(F)F (stereo not shown) [Example 598, [2-(trifluoromethyl)piperazin-1-yl](6-{[5-(trifluoromethyl)pyridin-2-yl]oxy}quinolin-2-yl)methanone] | 2980 |
| COCCCNC(=O)c1ccc2cc(Oc3ccc(C(F)(F)F)cn3)ccc2n1 [Example 599, N-(3-methoxypropyl)-6-{[5-(trifluoromethyl)pyridin-2-yl]oxy}quinoline-2-carboxamide] | 1590 |
| O=C(NCC1CSC1)c1ccc2cc(Oc3ccc(C(F)(F)F)cn3)ccc2n1 [Example 600, N-(thietan-3-ylmethyl)-6-{[5-(trifluoromethyl)pyridin-2-yl]oxy}quinoline-2-carboxamide] | 1760 |
| O=C(NCC1C[S+]([O-])C1)c1ccc2cc(Oc3ccc(C(F)(F)F)cn3)ccc2n1 (stereo not shown) [Example 601, N-[(1-oxidothietan-3-yl)methyl]-6-{[5-(trifluoromethyl)pyridin-2-yl]oxy}quinoline-2-carboxamide] | 2510 |
| O=C(NCC1CS(=O)(=O)C1)c1ccc2cc(Oc3ccc(C(F)(F)F)cn3)ccc2n1 [Example 602, N-[(1,1-dioxidothietan-3-yl)methyl]-6-{[5-(trifluoromethyl)pyridin-2-yl]oxy}quinoline-2-carboxamide] | 1070 |
| O=C(NC1CC(F)C1)c1ccc2cc(Oc3ccc(C(F)(F)F)cn3)ccc2n1 (stereo not shown) [Example 604, N-(3-fluorocyclobutyl)-6-{[5-(trifluoromethyl)pyridin-2-yl]oxy}quinoline-2-carboxamide] | 3010 |
| O=C(NCCN1CCOC1=O)c1ccc2cc(Oc3ccc(C(F)(F)F)cn3)ccc2n1 [Example 605, N-[2-(2-oxo-1,3-oxazolidin-3-yl)ethyl]-6-{[5-(trifluoromethyl)pyridin-2-yl]oxy}quinoline-2-carboxamide] | 2880 |
| O=C(NCCc1ccccn1)c1ccc2cc(Oc3ccc(C(F)(F)F)cn3)ccc2n1 [Example 606, N-[2-(pyridin-2-yl)ethyl]-6-{[5-(trifluoromethyl)pyridin-2-yl]oxy}quinoline-2-carboxamide] | 856 |
| O=C(NCCCc1ccccn1)c1ccc2cc(Oc3ccc(C(F)(F)F)cn3)ccc2n1 [Example 607, N-[3-(pyridin-2-yl)propyl]-6-{[5-(trifluoromethyl)pyridin-2-yl]oxy}quinoline-2-carboxamide] | 910 |
| O=C(NCCCN1CCCC1=O)c1ccc2cc(Oc3ccc(C(F)(F)F)cn3)ccc2n1 [Example 608, N-[3-(2-oxopyrrolidin-1-yl)propyl]-6-{[5-(trifluoromethyl)pyridin-2-yl]oxy}quinoline-2-carboxamide] | 2700 |
| O=C1CC(CNC(=O)c2ccc3cc(Oc4ccc(C(F)(F)F)cn4)ccc3n2)CN1 (stereo not shown) [Example 609, N-[(5-oxopyrrolidin-3-yl)methyl]-6-{[5-(trifluoromethyl)pyridin-2-yl]oxy}quinoline-2-carboxamide] | 4500 |
| CC(=O)NCC(C)CNC(=O)c1ccc2cc(Oc3ccc(C(F)(F)F)cn3)ccc2n1 (stereo not shown) [Example 610, N-(3-acetamido-2-methylpropyl)-6-{[5-(trifluoromethyl)pyridin-2-yl]oxy}quinoline-2-carboxamide] | 2760 |
| CC(=O)NCCCNC(=O)c1ccc2cc(Oc3ccc(C(F)(F)F)cn3)ccc2n1 [Example 613, N-(3-acetamidopropyl)-6-{[5-(trifluoromethyl)pyridin-2-yl]oxy}quinoline-2-carboxamide] | 2210 |
| O=C1CCC2N1CCCN2C(=O)c1ccc2cc(Oc3ccc(C(F)(F)F)cn3)ccc2n1 (stereo not shown) [Example 614, 1-[(6-{[5-(trifluoromethyl)pyridin-2-yl]oxy}quinolin-2-yl)carbonyl]hexahydropyrrolo[1,2-a]pyrimidin-6(2H)-one] | 12200 |
| O=C(NCCC1CS(=O)(=O)C1)c1ccc2cc(Oc3ccc(C(F)(F)F)cn3)ccc2n1 [Example 615, N-[2-(1,1-dioxidothietan-3-yl)ethyl]-6-{[5-(trifluoromethyl)pyridin-2-yl]oxy}quinoline-2-carboxamide] | 2320 |
| O=C(NC1CC(F)C1)c1ccc2cc(Oc3ccc(C(F)F)cn3)ccc2n1 (stereo not shown) [Example 617, 6-{[5-(difluoromethyl)pyridin-2-yl]oxy}-N-(3-fluorocyclobutyl)quinoline-2-carboxamide] | 2780 |
| [cis-2,2-dimethyltetrahydro-5H-[1,3]dioxolo[4,5-c]pyrrol-5-yl](6-{[5-(trifluoromethyl)pyridin-2-yl]oxy}quinolin-2-yl)methanone [Example 373] | 3700 |
| {2-[(dimethylamino)methyl]morpholin-4-yl}(6-{[5-(trifluoromethyl)pyridin-2-yl]oxy}quinolin-2-yl)methanone [Example 374] | 970 |

Same assay, conditions: read-out: FRET-Membrane Potential Nav1.7 IC50

| Molecule | IC50 [nM] |
| --- | --- |
| CN(CCS(C)(=O)=O)C(=O)c1ccc2cc(Oc3ccc(C(F)(F)F)cn3)ccc2n1 [Example 611, N-methyl-N-[2-(methylsulfonyl)ethyl]-6-{[5-(trifluoromethyl)pyridin-2-yl]oxy}quinoline-2-carboxamide] | 4990 |
| CS(=O)(=O)CCCCNC(=O)c1ccc2cc(Oc3ccc(C(F)(F)F)cn3)ccc2n1 [Example 612, N-[4-(methylsulfonyl)butyl]-6-{[5-(trifluoromethyl)pyridin-2-yl]oxy}quinoline-2-carboxamide] | 2930 |
| COCC1(F)CCN(C(=O)c2ccc3cc(Oc4ccc(C(F)(F)F)cn4)ccc3n2)CC1 [Example 618, [4-fluoro-4-(methoxymethyl)piperidin-1-yl](6-{[5-(trifluoromethyl)pyridin-2-yl]oxy}quinolin-2-yl)methanone] | 2690 |
